In ChEMBL document CHEMBL4177738, “Synthesis and evaluation of a class of 1,4,7-triazacyclononane derivatives as iron depletion antitumor agents” (Bioorg Med Chem Lett, 2018):
Active and inactive are the calls of the source. The rule behind the calls is not given here.

Columns and labels:
[1] = tested on: L02; assay: Increase in cell viability in human LO2 cells at 50 uM incubated for 72 hrs by MTT assay relative to untreated control; assay type: functional
[2] = tested on: HepG2; assay: Antiproliferative activity against human HepG2 cells assessed as reduction in cell viability incubated for 72 hrs by MTT assay; assay type: functional, cell-based; conditions: HepG2, 72 h
[3] = tested on: L02; assay: Antiproliferative activity against human LO2 cells assessed as reduction in cell viability at 50 uM incubated for 72 hrs by MTT assay; assay type: cell-based; conditions: l02, 72 h
[4] = tested on: HepG2; assay: Antiproliferative activity against human HepG2 cells assessed as reduction in cell viability at 50 uM incubated for 72 hrs in presence of 50 uM iron chloride by MTT assay; assay type: functional, cell-based
[5] = tested on: HepG2; assay: Antiproliferative activity against human HepG2 cells assessed as reduction in cell viability at 50 uM incubated for 72 hrs by MTT assay; assay type: functional; conditions: HepG2, 72 h

| IC50 [2] [µM] | SMILES | fold change (FC) [1] | Activity [3] | inhibition [4] | inhibition at 50 µM [5] [%] |
| --- | --- | --- | --- | --- | --- |
| 1.4 | O=C(O)CN(CCCc1ccc([N+](=O)[O-])cc1)CCN1CCN(CC(=O)O)CCN(CC(=O)O)CC1 | 3 - 8 | Non-Toxic | – | – |
| 4.5 | O=C(O)CN1CCN(CCCn2cccc(O)c2=O)CCN(CC(=O)O)CC1 | 3 - 8 | Non-Toxic | inactive | 80 |
| > 100 | CC(=O)N(O)CCCCCNC(=O)CCC(=O)N(O)CCCCCNC(=O)CCC(=O)N(O)CCCCCN [DEFEROXAMINE] | – | Non-Toxic | inactive | 40 |
| 3.8 | O=C(O)CN(CCN1CCN(CP(=O)(O)O)CCN(CP(=O)(O)O)CC1)CC(=O)O | 3 - 8 | Non-Toxic | – | – |
| 6.9 | O=C(O)CN1CCN(CCn2cccc(O)c2=O)CCN(CC(=O)O)CC1 | 3 - 8 | Non-Toxic | inactive | 80 |
| 38.3 | O=C(O)CN(CCN(CC(=O)O)CC(=O)O)CCN(CC(=O)O)CC(=O)O [PENTETIC ACID] | – | Non-Toxic | inactive | 60 |
| 8.2 | O=C(O)CN1CCN(CC(=O)O)CCN(CC(Cc2ccc([N+](=O)[O-])cc2)N(CC(=O)O)CC(=O)O)CC1 (stereo not given) | 3 - 8 | Non-Toxic | – | – |
| 1.5 | Nc1ccc(CCCN(CCN2CCN(CC(=O)O)CCN(CC(=O)O)CC2)CC(=O)O)cc1 | 3 - 8 | Non-Toxic | – | – |
